How the values were obtained:
[1] = Antiplatelet aggregation activity in New Zealand white rabbit platelet rich plasma assessed as inhibition of ADP-induced aggregation treated for 3 mins before ADP challenge by turbidimetric method; format: functional; conditions: Oryctolagus cuniculus, Newzealand white
RAW264.7 [2] = assay: Inhibition of nitric oxide production in LPS-stimulated mouse RAW264.7 cells at 100 uM by Griess reagent assay; format: functional
[3] = Cytotoxicity against mouse RAW264.7 cells assessed as cell survival up to 100 uM by MTT assay; format: cell-based; conditions: read-out: Activity
RAW264.7 [4] = assay: Inhibition of nitric oxide production in LPS-stimulated mouse RAW264.7 cells by Griess reagent assay; format: functional, cell-based

| IC50 [1] | IC50 (RAW264.7 [4]) | Compound | inhibition at 100 µM (RAW264.7 [2]) | viability [3] |
| --- | --- | --- | --- | --- |
| > 200 µM | – | C=C1CC[C@H]2C(C)(C)CCC[C@]2(C)[C@H]1C/C=C(/CO)[C@@H](O)CO | < 10% | 90% |
| 58.9 µM | – | C=C1CC[C@H]2[C@](C)(CO)[C@@H](O)CC[C@]2(C)[C@H]1CCC1=CC(=O)OC1 | < 10% | 90% |
| > 200 µM | – | C=C1CC[C@H]2[C@](C)(CO)[C@@H](O)CC[C@]2(C)[C@H]1C/C=C1\CCOC1=O | < 10% | 90% |
| 58.9 µM | – | CC(=O)Oc1ccccc1C(=O)O [ASPIRIN] | – | – |
| – | 40.4 µM | CNC(=N)NCCC[C@H](N)C(=O)O [TILARGININE] | – | – |

Continued, molecule first:

| Compound | IC50 [1] | IC50 (RAW264.7 [4]) | inhibition at 100 µM (RAW264.7 [2]) | viability [3] |
| --- | --- | --- | --- | --- |
| CC1(C)[C@@H](O)CC[C@]2(C)[C@H]3CCC4=CC(=O)O[C@@H]4[C@@]3(C)C(=O)C[C@@H]12 [KRAVANHIN A] | > 200 µM | – | < 10% | 90% |
| CC1(C)CCC[C@]2(C)[C@H]3CCC4=CC(=O)O[C@@H]4[C@@]3(C)C(=O)C[C@@H]12 [KRAVANHIN B] | > 200 µM | 36.2 µM | < 10% | 90% |
| CC1(C)C(=O)CC[C@]2(C)[C@H]3CCC4=CC(=O)O[C@@H]4[C@@]3(C)C(=O)C[C@@H]12 [KRAVANHIN C] | > 200 µM | – | < 10% | 90% |
| CC1(C)CCC[C@]2(C)[C@H]3CC=C(CCO)C(O)[C@@]3(C)C(=O)C[C@@H]12 (some centres undefined) [KRAVANHIN D] | > 200 µM | – | < 10% | 90% |
